From publication PMC5964007 (Nature chemical biology, 2018) come the findings set out here.

In assay [1] the target is T1, E. coli penicillin amidase (Escherichia coli, UniProt P06875). In words: pH-shift colorimetric kinetic assay. The assay is classed as biochemical. Conditions: 5 mM MOPS pH 7.2, 25 °C.
The target of assay [2] is T1, E. coli penicillin amidase. In words: pH-shift colorimetric kinetic assay. Conditions: pH 8.4, 10 mM m-nitrophenol, 25 °C, 5 U/ml enzyme. In kind it is biochemical.

T1 sequence (P06875 27-235): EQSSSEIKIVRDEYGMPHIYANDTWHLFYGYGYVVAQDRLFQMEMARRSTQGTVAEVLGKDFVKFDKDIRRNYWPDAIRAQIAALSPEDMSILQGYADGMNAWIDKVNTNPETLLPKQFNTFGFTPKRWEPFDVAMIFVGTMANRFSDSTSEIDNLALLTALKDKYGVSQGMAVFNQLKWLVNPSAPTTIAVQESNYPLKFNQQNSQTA
T1 sequence (P06875 290-846): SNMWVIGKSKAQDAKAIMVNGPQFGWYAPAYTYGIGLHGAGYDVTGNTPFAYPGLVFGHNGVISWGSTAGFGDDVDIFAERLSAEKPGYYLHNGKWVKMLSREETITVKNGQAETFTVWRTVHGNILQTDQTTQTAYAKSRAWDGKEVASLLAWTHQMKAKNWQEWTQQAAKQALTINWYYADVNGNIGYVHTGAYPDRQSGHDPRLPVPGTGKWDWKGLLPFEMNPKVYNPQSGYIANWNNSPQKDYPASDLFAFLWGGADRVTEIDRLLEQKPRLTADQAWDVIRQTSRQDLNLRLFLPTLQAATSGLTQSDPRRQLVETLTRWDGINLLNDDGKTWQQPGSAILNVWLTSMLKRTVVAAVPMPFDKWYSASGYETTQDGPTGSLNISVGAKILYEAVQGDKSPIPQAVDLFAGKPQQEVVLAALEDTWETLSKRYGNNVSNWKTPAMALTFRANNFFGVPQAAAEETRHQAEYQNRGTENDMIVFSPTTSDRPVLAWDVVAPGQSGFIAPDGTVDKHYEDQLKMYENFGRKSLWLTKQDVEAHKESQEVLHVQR

For the compound `CC1(C)S[C@@H]2[C@H](NC(=O)Cc3ccccc3)C(=O)N2[C@H]1C(=O)O` [penicillin], the “pH-shift colorimetric kinetic assay (p-nitrophenol)” value in assay [1] was “E. coli penicillin amidase and commercial B. cereus β-lactamase enzymes exhibit Michaelis-Menten kinetics with penicillin”. In the case of `CC1(C)S[C@H]([C@H](NC(=O)Cc2ccccc2)C(=O)O)N[C@H]1C(=O)O` [benzylpenicilloic acid], the “pH-shift colorimetric kinetic assay (m-nitrophenol); LCMS” value in assay [2] was “when both Put1 and E. coli penicillin amidase were incubated with benzylpenicilloic acid as a substrate”.
